Measured values: patent US11464866B2, “Pharmaceutical composition containing macromolecular drug” (BIODYNAMIC RESEARCH FOUNDATION, priority 2016, dated 2022)

Test system: S-180 mice (tumor model)
Settings: mouse, in vivo, 1 day
Protocol: Method: In 1 ml of saline (0.01 M phosphate, 0.15 M NaCl, pH 7.4) were dissolved 10 mg of each sample (10 mg/ml) and the predetermined amount of each test reagent shown in Table 2. Then, 0.1 ml of each obtained solution and 0.1 ml of an aqueous solution (10 mg/ml) of Evans blue were intravenously administered to S-180 mice (tumor model) The tumor size of the mice was a diameter of 5 to 7 mm. The next day, each mouse was dissected and solid tumors were taken out therefrom. Evans blue was extracted by a conventional method and the leaked Evans blue was quantified by absorption of 560 nm (see Non-Patent Document 1).

SMILES: O=[N+]([O-])OCC(CO[N+](=O)[O-])O[N+](=O)[O-] [nitroglycerin]
- enhanced effect (tumor delivery): ≥ 30%
